IC50 data for 20 molecules are collected here from ChEMBL document CHEMBL1154660, “Synthesis of pyrrolo[2,3-d]pyrimidine derivatives and their antiproliferative activity against melanoma cell line” (Bioorg Med Chem Lett, 2009).

Structures are written as SMILES.

One may read the IC50 as the concentration needed to halve the response being measured. Low values mean greater potency in that assay, high ones weaker potency in that assay.

A short description of test [1]: Antiproliferative activity against human A375P cells after 24 hrs by MTT assay. It is filed as functional, cell-based. (Tetrazolium dyes change colour on reduction, which living cells bring about.)
The next test deals with HS27. Put plainly: Antiproliferative activity against human HS27 cells after 24 hrs by MTT assay. It is filed as cell-based. The settings on record: HS27, 24 h.

On to `O=C(Nc1ccc(-n2ccc3c(NC(=O)c4ccccc4)ncnc32)cc1)Nc1ccc(Cl)c(Cl)c1`, for which the IC50 in test [1] was found to be 4 µM; with HS27, 4.5 µM.

As to `O=C(Nc1ccc(-n2ccc3c(NC(=O)c4ccccc4)ncnc32)cc1)Nc1cccc(C(F)(F)F)c1`, the values for the IC50 (in test [1]; in the test with HS27) were 9.5 µM and 4.5 µM, respectively. With `Nc1ncnc2c1ccn2-c1ccc(NC(=O)c2cccc(C(F)(F)F)c2)cc1`, the 50% inhibitory concentration (IC50) was determined as 9.7 µM in test [1] and 7.1 µM in the test on HS27. The matching figures for `CC(=O)Nc1ncnc2c1ccn2-c1ccc(NC(=O)c2ccc(Cl)c(C(F)(F)F)c2)cc1`: above 10 µM and above 10 µM. With `O=C(Nc1ccc(-n2ccc3c(NC(=O)c4ccccc4)ncnc32)cc1)c1ccc(Cl)c(C(F)(F)F)c1`, the IC50 in test [1] is 2.3 µM; with HS27 it was 5.5 µM.

As to `Cc1cn(-c2cc(C(=O)Nc3ccc(-n4ccc5c(NC(=O)c6ccccc6)ncnc54)cc3)cc(C(F)(F)F)c2)cn1`, the figures for the IC50 (in test [1]; in the test with HS27) were 0.8 µM and 2.8 µM, respectively. The matching figures for `CC(=O)Nc1ncnc2c1ccn2-c1ccc(NC(=O)Nc2cccc(Cl)c2Cl)cc1`: above 10 µM and above 10 µM.

As for `Nc1ncnc2c1ccn2-c1ccc(NC(=O)c2ccc(Cl)c(C(F)(F)F)c2)cc1`, the half-inhibitory concentration (IC50) in test [1] worked out at 2.9 µM; with HS27, 5.6 µM.

With `O=C(Nc1ccc(-n2ccc3c(NC(=O)c4ccccc4)ncnc32)cc1)c1cccc(C(F)(F)F)c1`, the figures for the IC50 (in test [1]; with HS27) were 4.7 µM and 5.9 µM, respectively. Take `Nc1ncnc2c1ccn2-c1ccc(NC(=O)Nc2ccc(Cl)c(C(F)(F)F)c2)cc1`: the half-inhibitory concentration (IC50) is 8.1 µM in test [1] and above 10 µM in the test with HS27. For the molecule `O=C(Nc1ccc(-n2ccc3c(NC(=O)c4ccccc4)ncnc32)cc1)c1ccc(Cl)c(Cl)c1`, the figures for the 50% inhibitory concentration (IC50) (in test [1]; in the test on HS27) were 2 µM and 5 µM, respectively. The matching figures for `O=C(Nc1ccc(-n2ccc3c(NC(=O)c4ccccc4)ncnc32)cc1)c1ccc(N2CCOCC2)c(C(F)(F)F)c1`: 0.9 µM and 1.6 µM. As for `Nc1ncnc2c1ccn2-c1ccc(NC(=O)Nc2cc(C(F)(F)F)cc(C(F)(F)F)c2)cc1`, the IC50 was determined as 3 µM in test [1] and 9.5 µM with HS27.

In turn, `CNC(=O)c1cc(Oc2ccc(NC(=O)Nc3ccc(Cl)c(C(F)(F)F)c3)cc2)ccn1` [SORAFENIB] displayed an IC50 in test [1] of 5.6 µM. This lies in the single-digit micromolar range. As to `O=C(Nc1ccc(-n2ccc3c(NC(=O)c4ccccc4)ncnc32)cc1)Nc1cc(C(F)(F)F)cc(C(F)(F)F)c1`, the results for the half-maximal inhibitory concentration (IC50) (in test [1]; with HS27) were 9.8 µM and above 10 µM, respectively. As to `Nc1ncnc2c1ccn2-c1ccc(NC(=O)Nc2ccc(Cl)c(Cl)c2)cc1`, the IC50 is 5.4 µM in test [1] and 2.9 µM in the test with HS27.

Consider `O=C(Nc1ccc(-n2ccc3c(NC(=O)c4ccccc4)ncnc32)cc1)Nc1cccc(Cl)c1Cl`, for which the 50% inhibitory concentration (IC50) in test [1] was 4.1 µM; in the test on HS27, 7.8 µM. The matching figures for `CC(=O)Nc1ncnc2c1ccn2-c1ccc(NC(=O)Nc2ccc(Cl)c(C(F)(F)F)c2)cc1`: above 10 µM and above 10 µM. Regarding `O=C(Nc1ccc(-n2ccc3c(NC(=O)c4ccccc4)ncnc32)cc1)c1cc(C(F)(F)F)cc(C(F)(F)F)c1`, the half-inhibitory concentration (IC50) was determined as 2 µM in test [1] and 6.6 µM with HS27. The matching figures for `O=C(Nc1ccc(-n2ccc3c(NC(=O)c4ccccc4)ncnc32)cc1)Nc1ccc(Cl)c(C(F)(F)F)c1`: 4.6 µM and 6 µM.
